Test results as given in patent publication US6837977B1, “Capillary electrophoresis method for screening for affinity ligands using a detectable competitive ligand” (Cetek Corporation, priority 1999, dated 2005).
pKd: −log10 of the molar value.

Assays:
thrombin [1] = molecular target: T1, thrombin (Homo sapiens, UniProt P00734); details: binding to thrombin; stated for known ligands; cited from earlier work
thrombin [2] = molecular target: T1, thrombin; test: competitive-binding capillary electrophoresis screening with fluorescently labeled competitive ligand (FCL); details: for FCL/TG complex peak: FIG. 1
Experimental: Also prepared is 100 nM of a fluorescently labeled, tight-binding competitive ligand, single-stranded (ss) DNA oligonucleotide 5′-fluorescein-GGTTGGTGTGGTTGG-3′ (Kd=3×10^−9 M; hereinafter “FCL”). The mixture of target and candidate ligand (TG/LG) is first injected into the CE instrument for about ten (10) seconds to give a first plug, followed by a 10-second injection of FCL as the second plug.
Voltage of about 20 kV is applied to initiate electrophoresis, and the unbound competitive ligand (FCL) and bound FCL/TG complex peaks are monitored during CE by means of laser-induced fluorescence and a fluorescence detector positioned at a detection point along the capillary.
Here the thrombin target (TG) is incubated, prior to CE, for five minutes with samples containing hirugen and hirulog-1 at different concentrations. Each of these target/sample mixtures is subjected to a CE screening run, as follows. A plug of target/sample mixture is pressure-injected into the CE instrument for 10 seconds to give a first-injected plug. A second injection plug of 100 nM FCL is then injected for 10 seconds, and then voltage of about 20 kV is applied to start electrophoresis. The CE migration of the FCL and FCL/TG complex are monitored by way of laser-induced fluorescence. Again, the FCL has a higher electrophoretic mobility than the TG, so that the unbound FCL peak appears before that of the FCL/TG complex (see FIG. 2).

| Substance | pKd (thrombin [1]) | FCL/TG complex peak (thrombin [2]; 50 nM hirulog-1 in sample, equivalent to 50 nM thrombin, 100 nM FCL) | FCL/TG peak (thrombin [2]; hirulog-1 in samples also containing hirugen, 100 nM FCL, FIG. 2) | FCL/TG complex peak (thrombin [2]; increasing concentrations of hirulog-1, 50 nM thrombin pre-incubated 5 min, 100 nM FCL, 20 kV) | molar excess of weak-binding hirugen at which the hirulog-1 signal is detectable (thrombin [2]; samples containing hirugen and hirulog-1, FIG. 2) | change in competitive ligand's (FCL's) CE profile (thrombin [2]; pre-incubation of thrombin with 10,000 nM hirugen, 100 nM FCL, FIG. 2) |
| --- | --- | --- | --- | --- | --- | --- |
| 5′-fluorescein-GGTTGGTGTGGTTGG-3′ [FCL] | 8.52 | – | – | – | – | – |
| D-Phe-Pro-Arg-Pro-(Gly)4-Asn-Gly-Asp-Phe-Glu-Glu-Ile-Pro-Glu-Glu-Tyr-Leu [hirulog-1] | ~8.70 | complete disappearance | decrease | reduced | up to 1,000 fold | – |
| Gly-54-Leu-65 carboxyterminal dodecapeptide of hirudin with sulfated tyrosine [hirugen] | 6.82 | – | – | – | – | no difference |
